According to patent US20200246297A1, “LIQUID PHARMACEUTICAL FORMULATIONS OF TETRAIODOTHYRONINE” (priority 2015, published 2020):
Read-outs that look alike come from different tables or passages of the source.

Assays:
[1] = Quantity of T4 microaggregates formed in water: HPLC T4 concentration before and after 0.2 μm microfiltration; type: physicochemical
Method: […] 50 mL of each sample taken is microfiltered through a Millipore GSWP02500 membrane with a porosity of 0.2 μm.
(§1) 50 mL of each sample taken is microfiltered through a Millipore GSWP02500 membrane with a porosity of […].
as §1
50 mL of each sample taken is microfiltered through a Millipore GSWP02500 membrane with a porosity of 0.2 μm.

[2] = Filtration through membranes with cut-off ≤100 KDa: T4 in the permeate; type: physicochemical
[3] = Scanning electron microscopy (SEM) of the filter membrane surface; type: physicochemical; conditions: T4 powder in water, comparative example
Method: These findings indicate that despite the 1:100 dilution process undergone by the original 150 μg/mL mixture, the formation of microaggregates remains stable, even after 8 h, and removes a considerable amount of the active ingredient from the pharmacological action.

[4] = Protective effect of PEG: residual T4 assay by HPLC after 10 h stirring under nitrogen or oxygen; type: physicochemical; conditions: 600 rpm, 35° C.
Method: 5 mL of each solution is left under stirring for 10 h at 600 rpm and 35° C. in a nitrogen atmosphere, and 5 mL is left under the same conditions but in an oxygen atmosphere.

[5] = Saturation of T4 solutions in PEG; type: physicochemical; conditions: T4 solvated in PEG
Source text: Due to their structure, said nanoaggregates are easily absorbed at gastrointestinal level, and are therefore completely and certainly bioavailable.

[6] = cited from earlier work
[7] = cited from earlier work; remark: listed apart in the source
[8] = T4 150 μg/mL in 50% w/w aqueous PEG 400, 2000, 4000 or 8000 (all types), diluted 100 times in water pH 1.5, T0
[9] = T4 150 μg/mL in 50% w/w aqueous PEG 400, 2000, 4000 or 8000 (all types), diluted 100 times in water pH 6.5, T0
[10] = T4 150 μg/mL in PEG 200, 300, 400 or 600 (all types), diluted 100 times in water pH 6.5, T0

Substance: (2S)-2-amino-3-[4-(4-hydroxy-3,5-diiodo-oxyphenyloxy)-3,5-diiodophenyl]propanoic acid [T4]
- T4 concentration after microfiltration ([1]; T4 150 μg/mL in 30% w/w aqueous PEG 400, 2000, 4000 or 8000 (all types), diluted 100 times in water pH 6.5, T0): 75 % of the value before microfiltration
- T4 concentration after microfiltration [1, 8]: 100 % of the theoretical value
- T4 concentration before microfiltration [1, 8]: 100 % of the theoretical value
- T4 concentration after microfiltration [1, 9]: 100 % of the theoretical value
- T4 concentration before microfiltration [1, 9]: 100 % of the theoretical value
- T4 concentration after microfiltration [1, 10]: 100 % of the theoretical value
- T4 concentration before microfiltration [1, 10]: 100 % of the theoretical value
- T4 concentration after microfiltration compared with before ([1]; T4 150 μg/mL in PEG 8000/glycerol or PEG/ethanol 50/50 w/w (both systems), diluted 100 times in water pH 6.5, T0): identical to that before microfiltration
- behaviour at later times (microfiltration) ([1]; T4 in 30% w/w aqueous PEG, diluted 100 times in water pH 6.5, T1h, T4h and T8h): behaviour similar to that at T0
- T4 concentration in the solution before microfiltration ([1]; T4 powder 150 μg/mL in water pH 6.5, diluted 1:100 in water pH 6.5, T0 (30 sec)): 97.3 % of the theoretical value
- T4 concentration after microfiltration ([1]; T4 powder 150 μg/mL in water pH 6.5, diluted 1:100 in water pH 6.5, T0 (30 sec), 0.2 μm filter): 18.5 % of the theoretical value
- T4 concentration in the solution before microfiltration ([1]; T4 powder in water pH 6.5, diluted 1:100, T1h): 97.9%
- T4 concentration after microfiltration ([1]; T4 powder in water pH 6.5, diluted 1:100, T1h, 0.2 μm filter): 27.1%
- T4 concentration in the solution before microfiltration ([1]; T4 powder in water pH 6.5, diluted 1:100, T4h): 98.2%
- T4 concentration after microfiltration ([1]; T4 powder in water pH 6.5, diluted 1:100, T4h, 0.2 μm filter): 27.5%
- T4 concentration in the solution before microfiltration ([1]; T4 powder in water pH 6.5, diluted 1:100, T8h): 97.5%
- T4 concentration after microfiltration ([1]; T4 powder in water pH 6.5, diluted 1:100, T8h, 0.2 μm filter): 23.7%
- T4 in the permeate of ≤100 KDa membrane ([2]; T4 in 50% PEG in water, diluted 100 times in water pH 6.5): quantitative absence of T4 in the permeate
- T4 in the permeate of ≤100 KDa membrane ([2]; T4 in 50% w/w aqueous PEG, diluted 100 times in water pH 1.5): quantitative absence of T4 in the permeate
- T4 in the permeate of ≤100 KDa membrane ([2]; T4 in PEG 200, 300, 400 or 600, diluted 100 times in water pH 6.5): quantitative absence of T4 in the permeate
- T4 in the permeate of ≤100 KDa membrane ([2]; T4 in PEG 8000/glycerol or PEG/ethanol 50/50 w/w, diluted 100 times in water pH 6.5): quantitative absence of T4 in the permeate
- T4 in the permeate of ≤100 KDa membrane ([2]; T4 in glycerin, ethanol or glycerin/ethanol 80/20 w/w, diluted 100 times in water pH 6.5): quantitative absence of T4 in the permeate
- average length on the longer axis of elongated crystalline structures on the filter [3]: exceeding 3.03±1.40 μm
- T4 assay value of the solutions ([4]; T4 150 μg/mL in ethanol, glycerol, PEG 200, 300, 400 or 600 (all cases), nitrogen atmosphere): remains the same as the theoretical value
- residual T4 assay value ([4]; T4 150 μg/mL in glycerol or ethanol, oxygen atmosphere): 30 % of the original assay value
- concentration of T4 solution in PEG usable without the system becoming saturated [5]: up to 0.1 g/mL
- intrinsic dissolution rate (IDR) ([6]; entire physiological pH range): about 0.0002 mg/min/cm^2
- Biopharmaceutics Classification System class ([6]; high solubility and intestinal permeability): Class I
- half-life of the medicament ([7]; euthyroidism): about 7 days
- half-life of the medicament ([7]; hypothyroidism and pregnancy): 220 to 240 h
- share absorbed in the duodenum ([7]; oral, small intestine): 21%
- share absorbed in the ileum ([7]; oral, small intestine): 34%
- share absorbed in the jejunum ([7]; oral, small intestine): 45%
- time absorption takes ([7]; oral): about three
